# Source: patent US4822800A (Ortho Pharmaceutical Corporation, priority 1986, dated 1989)
# “Also recorded” adds a separate entry of the source. Like-named read-outs stand apart in the source and are kept apart here.
# Assays:
# [1] = biological target: T1, Phosphodiesterase fraction III (Canis lupus familiaris, UniProt A0A8I3NYE0); assay: inhibition of phosphodiesterase fraction III activity; assay type: biochemical, canine (heart); settings: for IC50: cyclic AMP 0.10-1.0 uM, pH 7.4, canine heart enzyme; for phosphodiesterase fraction III inhibition (in words): summary of Table 5
# T1 construct: isolated as an isozyme from the crude canine heart homogenate; from tissue; host or cells: canine heart (crude homogenate, ion exchange chromatography, third and last PDE peak)
# T1 sequence (A0A8I3NYE0 1-1135): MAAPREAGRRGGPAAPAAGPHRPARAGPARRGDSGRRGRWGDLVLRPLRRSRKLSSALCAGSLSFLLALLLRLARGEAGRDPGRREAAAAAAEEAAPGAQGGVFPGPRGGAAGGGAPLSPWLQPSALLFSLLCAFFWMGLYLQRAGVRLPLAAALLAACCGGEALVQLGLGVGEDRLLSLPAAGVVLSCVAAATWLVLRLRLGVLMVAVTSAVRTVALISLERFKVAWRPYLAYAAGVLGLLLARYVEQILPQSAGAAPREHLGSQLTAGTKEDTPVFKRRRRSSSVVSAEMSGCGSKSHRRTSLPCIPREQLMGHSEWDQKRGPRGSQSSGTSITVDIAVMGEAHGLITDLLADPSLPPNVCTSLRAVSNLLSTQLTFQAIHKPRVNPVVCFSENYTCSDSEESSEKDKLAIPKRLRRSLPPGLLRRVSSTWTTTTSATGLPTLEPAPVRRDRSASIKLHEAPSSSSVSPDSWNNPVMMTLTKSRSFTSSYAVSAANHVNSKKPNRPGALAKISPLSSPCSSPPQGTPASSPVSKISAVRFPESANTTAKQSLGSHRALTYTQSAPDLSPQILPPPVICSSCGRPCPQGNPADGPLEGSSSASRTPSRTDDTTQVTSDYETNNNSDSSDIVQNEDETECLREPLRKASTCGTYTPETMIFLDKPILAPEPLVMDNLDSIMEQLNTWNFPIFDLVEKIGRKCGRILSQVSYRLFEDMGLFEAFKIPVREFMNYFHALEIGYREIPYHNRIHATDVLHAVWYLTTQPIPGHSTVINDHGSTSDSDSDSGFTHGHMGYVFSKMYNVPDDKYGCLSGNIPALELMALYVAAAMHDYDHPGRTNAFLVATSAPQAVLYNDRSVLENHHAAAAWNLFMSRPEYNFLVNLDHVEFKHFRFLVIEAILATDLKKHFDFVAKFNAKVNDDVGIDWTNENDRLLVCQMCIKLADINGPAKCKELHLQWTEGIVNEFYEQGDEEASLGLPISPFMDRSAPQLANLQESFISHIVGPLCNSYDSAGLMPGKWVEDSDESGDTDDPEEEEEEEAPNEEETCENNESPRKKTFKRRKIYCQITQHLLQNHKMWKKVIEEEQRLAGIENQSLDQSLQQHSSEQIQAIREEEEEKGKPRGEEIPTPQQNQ
# adult mongrel dogs [2] = assay: acute in vivo cardiotonic activity in anesthetized dogs; parameters: species or system dog (adult mongrel); settings: for change in vivo at 0.15 mg/kg / change in vivo at 0.875 mg/kg / change in vivo at 1.875 mg/kg / change in vivo at 0.925 mg/kg / change in vivo at 0.025 mg/kg: Canis lupus familiaris, cardiotonic, relative to controls; for change in vivo at 0.15 mg/kg: dose 0.150 mg/kg intravenous; for cardiotonic activity (in words): summary of Table 4; for change in vivo at 0.875 mg/kg: dose 0.875 mg/kg intravenous; for change in vivo at 1.875 mg/kg: dose 1.875 mg/kg intravenous; for change in vivo at 0.925 mg/kg: dose 0.925 mg/kg intravenous; for change in vivo at 0.025 mg/kg: dose 0.025 mg/kg intravenous
# Experimental: The acute in vivo cardiotonic activity of compounds prepared according to the present invention was determined according to a modification of the procedure described by Alousi et al., Circ. Res., 45, 666 (1979).
# In particular, adult mongrel dogs were anesthetized with sodium pentobarbital and were artificially respired. Arterial pressure was monitored via a femoral artery, and the pulse pressure was used to trigger a cardiotachometer for heart rate. Left ventricular pressure was determined with a Millar catheter, and dP/dt (the change in ventricular pressure with time) was derived. Cardiac output was determined by measuring ascending aortic blood flow with an electromagnetic flow probe, and myocardial contractile force was measured with a Walton Brodie strain gauge sutured to the right ventricle. Lead II EKG was also recorded.
# A standard dose (10 μg/kg/min) of dopamine was administered to assess myocardial responsiveness.
# Compounds of the invention were administered by intravenous infusion or bolus […] administration, and the effects on cardiovascular parameters were determined.
# Dose related effects of the test compound on blood pressure (BP), heart rate (HR), maximum change in left ventricular pressure with time (dP/dt max),% change in cardiac force (CF) and the increase in mean arterial blood pressure relative to controls (MABP) were compared to pretreatment control values, expressed as a% change and rated for activity.
# adult mongrel dogs [3] = assay: renal vasodilating activity in anesthetized dogs; assay type: in vivo, dog (adult mongrel); settings: for change in vivo at 0.2 mg/kg: dose 0.2 mg/kg intravenous; for renal vasodilating activity (in words): summary of Table 4; for change in vivo at 0.34 mg/kg: dose 0.34 mg/kg intravenous; for change in vivo at 1.2 mg/kg: dose 1.2 mg/kg intravenous
# Experimental: Goldberg et al, J. Pharmacol. Exp. Ther., 163, 188 (1968), performed an investigation of the structural requirements for dopamine-like renal vasodilation of phenethylamines and apomorphine. The following procedure is a variation of the assay described in that report.
# Adult mongrel dogs were anesthetized and surgically prepared for electromagnetic measurement of renal artery blood flow. A carotid artery was cannulated for measuring arterial blood pressure, and drugs were administered intravenously. Heart rate was monitored with a cardiotachometer. Renal vascular resistance was calculated as the ratio of mean arterial blood pressure/renal artery blood flow. Dopamine was infused intravenously at 3 μg/kg/min for ten minutes (at an infusion rate of about 1 ml/min) to determine responsiveness of each dog to renal dopamine receptor stimulation. Cumulative dose-response data were obtained by infusing a compound of this invention at progressively increasing (usually three-fold) infusion rates, each dose being infused for five minutes. The maximum % increase from pre-drug control in renal artery blood flow (or a decrease in renal vascular resistance) was determined for each infusion dose.
# RBF values are percent change in renal blood flow. RVR values are percent change in renal vascular resistance. MABP and HR are percent changes in mean arterial blood pressure and heart rate, respectively, relative to controls.
# [4] = read-out: MABP (mean arterial blood pressure)
# [5] = read-out: dP/dt (maximum change left ventricular pressure with time)
# [6] = Canis lupus familiaris, renal vasodilator, relative to controls, read-out: HR (heart rate)
# [7] = Canis lupus familiaris, renal vasodilator, relative to controls, read-out: MABP (mean arterial blood pressure)
# [8] = Canis lupus familiaris, renal vasodilator, relative to controls, read-out: RBF (renal blood flow)
# [9] = Canis lupus familiaris, renal vasodilator, relative to controls, read-out: RVR (renal vascular resistance)
Compound,IC50 [1] [µM],phosphodiesterase fraction III inhibition (in words) [1],cardiotonic activity (in words) (adult mongrel dogs [2]),change in vivo at 0.2 mg/kg (adult mongrel dogs [3]; [8]) [%],change in vivo at 0.2 mg/kg (adult mongrel dogs [3]; [9]) [%],renal vasodilating activity (in words) (adult mongrel dogs [3]),change in vivo at 0.875 mg/kg (adult mongrel dogs [2]; read-out: CF (cardiac force)) [%],change in vivo at 0.875 mg/kg (adult mongrel dogs [2]; read-out: HR (heart rate)) [%],change in vivo at 0.875 mg/kg (adult mongrel dogs [2]; [4]) [%],change in vivo at 0.875 mg/kg (adult mongrel dogs [2]; [5]) [%],change in vivo at 1.2 mg/kg (adult mongrel dogs [3]; [8]) [%],change in vivo at 1.2 mg/kg (adult mongrel dogs [3]; [9]) [%],further results
COc1cc2c(C)nc(O)c(C(C)C)c2cc1OC [AF],12.3,inhibit phosphodiesterase fraction III activity; also recorded: phosphodiesterase fraction III inhibiting properties,cardiotonic properties,11,-24,renal vasodilating properties,,,,,,,change in vivo at 0.15 mg/kg (adult mongrel dogs [2]; read-out: CF (cardiac force)): 92%; change in vivo at 0.15 mg/kg (adult mongrel dogs [2]; read-out: HR (heart rate)): 8%; change in vivo at 0.15 mg/kg (adult mongrel dogs [2]; [4]): -15%; change in vivo at 0.15 mg/kg (adult mongrel dogs [2]; [5]): 60%; change in vivo at 0.2 mg/kg (adult mongrel dogs [3]; [6]): 28%; change in vivo at 0.2 mg/kg (adult mongrel dogs [3]; [7]): -16%
"Br.COc1cc2c(C)nc(O)c(Br)c2cc1OC.O [Compound AC, 4-Bromo-3-hydroxy-6,7-dimethoxy-1-methylisoquinoline Hydrobromide Monohydrate]",10,inhibit phosphodiesterase fraction III activity,,8,-27,,128,26,-40,25,,,
COc1cc2c(C)nc(O)c(C3CCCC3)c2cc1OC [AN],128,,,,,,,,,,,,change in vivo at 1.875 mg/kg (adult mongrel dogs [2]; read-out: CF (cardiac force)): 46%; change in vivo at 1.875 mg/kg (adult mongrel dogs [2]; read-out: HR (heart rate)): 5%; change in vivo at 1.875 mg/kg (adult mongrel dogs [2]; [4]): 3%; change in vivo at 1.875 mg/kg (adult mongrel dogs [2]; [5]): 22%; change in vivo at 0.34 mg/kg (adult mongrel dogs [3]; [6]): 1%; change in vivo at 0.34 mg/kg (adult mongrel dogs [3]; [7]): -1%; change in vivo at 0.34 mg/kg (adult mongrel dogs [3]; [8]): 10%; change in vivo at 0.34 mg/kg (adult mongrel dogs [3]; [9]): -10%
"COC(=O)CCc1c(O)nc(C)c2cc(OC)c(OC)cc12 [Compound B, 4-(β-Carbomethoxyethyl)-3-hydroxy-6,7-dimethoxy-1-methylisoquinoline]",40,inhibit phosphodiesterase fraction III activity; also recorded: phosphodiesterase fraction III inhibiting properties,cardiotonic properties,,,renal vasodilating properties,140,34,-12,78,,,"change in vivo at 13.9 mg/kg (adult mongrel dogs [3]; Canis lupus familiaris, renal vasodilator, dose 13.9 mg/kg intravenous, relative to controls, read-out: HR (heart rate)): 12%; change in vivo at 13.9 mg/kg (adult mongrel dogs [3]; Canis lupus familiaris, renal vasodilator, dose 13.9 mg/kg intravenous, relative to controls, read-out: MABP (mean arterial blood pressure)): -28%; change in vivo at 13.9 mg/kg (adult mongrel dogs [3]; Canis lupus familiaris, renal vasodilator, dose 13.9 mg/kg intravenous, relative to controls, read-out: RBF (renal blood flow)): 15%; change in vivo at up to 13.9 mg/kg (adult mongrel dogs [3]; Canis lupus familiaris, renal vasodilator, dose 13.9 mg/kg intravenous, relative to controls, read-out: RVR (renal vascular resistance)): -38%"
COc1ccc2c(C)nc(O)cc2c1 [AI],160,,,,,,,,,,7,-7,change in vivo at 0.925 mg/kg (adult mongrel dogs [2]; read-out: CF (cardiac force)): 65%; change in vivo at 0.925 mg/kg (adult mongrel dogs [2]; read-out: HR (heart rate)): 8%; change in vivo at 0.925 mg/kg (adult mongrel dogs [2]; [4]): 0%; change in vivo at 0.925 mg/kg (adult mongrel dogs [2]; [5]): 56%; change in vivo at 1.2 mg/kg (adult mongrel dogs [3]; [6]): 4%; change in vivo at 1.2 mg/kg (adult mongrel dogs [3]; [7]): -1%
"CCc1c(O)nc(C)c2cc(OC)c(OC)cc12 [Compound Z, 4-ethyl-3-hydroxy-6,7-dimethoxy-1-methylisoquinoline]",2.4,inhibit phosphodiesterase fraction III activity; also recorded: phosphodiesterase fraction III inhibiting properties,cardiotonic properties,,,renal vasodilating properties,,,,,10,-38,change in vivo at 0.025 mg/kg (adult mongrel dogs [2]; read-out: CF (cardiac force)): 143%; change in vivo at 0.025 mg/kg (adult mongrel dogs [2]; read-out: HR (heart rate)): 13%; change in vivo at 0.025 mg/kg (adult mongrel dogs [2]; [4]): -12%; change in vivo at 0.025 mg/kg (adult mongrel dogs [2]; [5]): 98%
